The record followed here is US12453715B2, “Use of artemether in the prevention and treatment of Alzheimer's disease” (UNIVERSITY OF MACAU, priority 2018, dated 2025).

Series [1] deals with PC12 cells. Description: MTT assay, Aβ1-42-induced cytotoxicity in PC12 cells. The series is classed as cell-based. The note with it: 1 μM Aβ1-42 for 24 hours. How it is done: PC12 cells were cultured in DMEM (Dulbecco's Modified Eagle's) medium supplemented with 10% fetal bovine serum (FBS) and 100 μg/ml streptomycin in a humidified incubator 5% CO2 at 37° C. The cells were seeded in 96-well plates, and then treated with Aβ1-42a and artemether. MTT assay was used to access cell viability. MTT (3-(4,5-dimethylthiazole-2)-2,5-diphenyltetrazolium bromide) the detection principle relies on the enzymatic reduction of MTT to water-insoluble purple crystals-formazan particles, which is catalyzed by mitochondrial succinate dehydrogenase produced in living cells. The light absorption value is measured by an enzyme-linked immunoassay at 570 nm wavelength allowing to determine the number of living cells based on the amount of formazan produced. In short, PC12 cells were seeded in 96-well plates. In the next day the medium was replaced with fresh DMEM, and the cells pretreated with different concentrations of artemether or untreated followed by incubation with 1 μM Aβ1-42 for 24 hours. After 24 hours, MTT (0.5 mg/mL) was added to each well and further incubated for another 3 hours at 37° C. After incubation, the cells and MTT formazan crystals were dissolved with DMSO, and the absorbance was measured at 570 nm. Cell viability was calculated as a percentage of the control group.

The test system of series [2] is PC12 cells. Kind of series: AMPK inhibitor compound C against the protective effect of artemether in PC12 cells (MTT, flow cytometry, Western blot). The series is classed as cell-based. How it is done: Apoptosis was evaluated by flow cytometry. PC12 cells were seeded into 6-well plates, treated, digested with 0.25% trypsin, harvested, washed twice with ice cold 1×PBS and suspended with buffer. […] were stained with 5 μL Annexin-V-FITC and 10 μL propidium iodide solution, incubated for 30 min in the dark, and the apoptotic cells in each group were determined and analyzed using a flow cytometer. The other steps are the same as in Embodiment 2.4 and Embodiment 10.

`CO[C@H]1O[C@@H]2O[C@@]3(C)CC[C@H]4[C@H](C)CC[C@@H]([C@H]1C)[C@@]24OO3` [artemether]: the “effective dose for protection from Aβ1-42-induced cytotoxicity” value in the series with PC12 cells [1] was “about 10 μM”. Further, the “protection from Aβ1-42-induced cytotoxicity (cell viability, MTT)” value in the series on PC12 cells [1] (artemether pretreatment) is “protected PC12 cells from Aβ1-42-induced cytotoxicity in a concentration-dependent manner”.

On to `c1cc(-c2cnn3cc(-c4ccc(OCCN5CCCCC5)cc4)cnc23)ccn1` [compound C], for which, in the series on PC12 cells [2] (Western blot, GAPDH as internal control), the “effect on phosphorylation of AMPK and GSK3β (ser9) induced by artemether” value is “reversed the phosphorylation of AMPK and GSK3β (ser9) induced by artemether”. Also, the “effect on the protection by artemether from Aβ1-42-induced apoptosis (flow cytometry)” value in the series with PC12 cells [2] (compound C pretreatment with artemether, Aβ1-42 (1 μM)) is given as “alleviated the protective effect of artemether on Aβ1-42-induced apoptosis”. Moreover, the “effect on the cell survival effect of artemether (cell viability, MTT)” value with PC12 cells [2] (compound C pretreatment with artemether, Aβ1-42 (1 μM) for 24 hours) was “abolished the elevated cell survival effect of artemether”.
